Results as given in ChEMBL document CHEMBL1201862, “PubChem BioAssay data set” (2004).
Activity calls are given as the source filed them.

Experiments:
[1] = biological target: DNA dC->dU-editing enzyme APOBEC-3G (Homo sapiens, UniProt Q9HC16); experiment: Dose Response confirmation of small molecule APOBEC3G DNA Deaminase Inhibitors via a fluorescence-based single-stranded DNA deaminase assay. [Related pubchem assays (depositor defined):AID493012, AID493028]; format: functional
[2] = biological target: T1, Small ubiquitin-related modifier 1 (Homo sapiens, UniProt P63165); experiment: SUMO1 protein-protein binding blockers, potency – biochemical, FRET, dose response (AID 624383); format: functional; settings: read-out: IC50_Mean
T1 sequence (P63165 whole entry, the tested form may be a part): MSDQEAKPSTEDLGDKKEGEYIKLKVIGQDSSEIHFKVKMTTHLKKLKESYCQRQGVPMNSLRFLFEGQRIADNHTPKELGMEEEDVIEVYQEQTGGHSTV

[3] = biological target: T2, Carboxy-terminal domain RNA polymerase II polypeptide A small phosphatase 1 (Homo sapiens, UniProt Q9GZU7); experiment: CTDSP1 inhibitors, concentration-response, biochemical, absorbance readout, ultra-high-throughput screen actives (AID 540297); format: functional
T2 sequence (Q9GZU7 whole entry): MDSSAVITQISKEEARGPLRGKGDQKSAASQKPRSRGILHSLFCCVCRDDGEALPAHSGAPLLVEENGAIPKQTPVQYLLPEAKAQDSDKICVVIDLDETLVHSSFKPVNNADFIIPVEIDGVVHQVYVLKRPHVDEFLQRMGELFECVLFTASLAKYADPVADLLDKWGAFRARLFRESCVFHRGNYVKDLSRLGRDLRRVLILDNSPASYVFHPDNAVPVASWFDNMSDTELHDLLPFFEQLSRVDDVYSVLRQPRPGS

[4] = biological target: T3, Apoptotic protease-activating factor 1 (Homo sapiens, UniProt O14727); experiment: activation of Apaf-1 mediated apoptosis – fluorescent, uHTS hits, dose response (AID 588554); format: functional
T3 sequence (O14727 whole entry): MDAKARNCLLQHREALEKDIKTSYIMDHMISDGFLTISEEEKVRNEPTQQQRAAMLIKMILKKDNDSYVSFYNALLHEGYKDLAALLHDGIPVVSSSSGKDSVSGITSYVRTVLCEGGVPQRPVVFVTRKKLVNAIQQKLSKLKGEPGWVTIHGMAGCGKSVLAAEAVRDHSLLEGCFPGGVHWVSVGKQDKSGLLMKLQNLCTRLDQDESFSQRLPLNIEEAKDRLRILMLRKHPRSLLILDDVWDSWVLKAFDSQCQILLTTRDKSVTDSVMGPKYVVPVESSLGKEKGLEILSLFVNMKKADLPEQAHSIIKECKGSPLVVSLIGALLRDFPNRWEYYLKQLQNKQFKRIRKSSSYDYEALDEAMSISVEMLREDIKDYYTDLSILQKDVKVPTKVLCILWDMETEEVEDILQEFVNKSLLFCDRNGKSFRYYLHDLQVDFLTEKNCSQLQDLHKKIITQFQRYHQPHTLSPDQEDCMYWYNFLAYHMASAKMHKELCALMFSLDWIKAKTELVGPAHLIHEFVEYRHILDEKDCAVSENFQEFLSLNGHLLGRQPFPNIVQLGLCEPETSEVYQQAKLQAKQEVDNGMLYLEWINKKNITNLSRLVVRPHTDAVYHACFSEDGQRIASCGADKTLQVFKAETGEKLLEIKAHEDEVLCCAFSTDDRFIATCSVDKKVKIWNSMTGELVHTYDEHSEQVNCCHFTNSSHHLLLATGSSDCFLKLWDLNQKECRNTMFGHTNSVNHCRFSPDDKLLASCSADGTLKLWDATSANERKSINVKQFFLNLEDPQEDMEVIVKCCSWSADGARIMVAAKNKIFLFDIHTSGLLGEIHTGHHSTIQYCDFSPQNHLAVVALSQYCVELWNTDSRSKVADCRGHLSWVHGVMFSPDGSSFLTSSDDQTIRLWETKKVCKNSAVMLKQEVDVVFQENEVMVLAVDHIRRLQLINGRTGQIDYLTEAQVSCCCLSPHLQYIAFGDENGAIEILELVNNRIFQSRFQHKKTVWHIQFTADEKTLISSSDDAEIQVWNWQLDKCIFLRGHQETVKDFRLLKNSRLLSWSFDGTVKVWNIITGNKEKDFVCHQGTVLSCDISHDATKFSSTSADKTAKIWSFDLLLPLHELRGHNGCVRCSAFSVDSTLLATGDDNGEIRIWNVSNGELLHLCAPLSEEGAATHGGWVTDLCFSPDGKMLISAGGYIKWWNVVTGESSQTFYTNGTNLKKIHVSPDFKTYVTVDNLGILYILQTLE

[5] = biological target: Beta-adrenergic receptor kinase 1 (Homo sapiens, UniProt P25098); experiment: aptamer displacement from bead-bound GRK2 – biochemical, cherry pick 1, bead flow cytometry, dose response (AID 504500)
Chain of Beta-adrenergic receptor kinase 1 (P25098 whole entry): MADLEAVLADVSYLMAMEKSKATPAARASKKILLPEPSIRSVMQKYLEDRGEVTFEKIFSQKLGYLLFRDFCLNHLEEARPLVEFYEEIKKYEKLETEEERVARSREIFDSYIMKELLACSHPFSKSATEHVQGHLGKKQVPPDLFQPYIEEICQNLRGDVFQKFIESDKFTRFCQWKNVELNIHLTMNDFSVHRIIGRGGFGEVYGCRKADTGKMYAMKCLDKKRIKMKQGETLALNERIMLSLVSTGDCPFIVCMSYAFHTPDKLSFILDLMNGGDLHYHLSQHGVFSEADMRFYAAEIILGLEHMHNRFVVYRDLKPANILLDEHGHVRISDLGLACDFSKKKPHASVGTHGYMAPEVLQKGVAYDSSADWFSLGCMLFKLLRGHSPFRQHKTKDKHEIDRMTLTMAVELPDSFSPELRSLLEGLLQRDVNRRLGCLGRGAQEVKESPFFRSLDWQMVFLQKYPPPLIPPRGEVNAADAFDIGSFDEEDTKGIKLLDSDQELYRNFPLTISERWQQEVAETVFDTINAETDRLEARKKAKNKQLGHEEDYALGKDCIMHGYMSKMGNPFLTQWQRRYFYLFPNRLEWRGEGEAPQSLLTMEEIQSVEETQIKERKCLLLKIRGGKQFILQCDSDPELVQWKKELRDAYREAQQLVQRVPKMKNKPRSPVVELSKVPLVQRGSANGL

[6] = biological target: DNA dC->dU-editing enzyme APOBEC-3A (Homo sapiens, UniProt P31941); experiment: A3A deaminase inhibition for selectivity – biochemical, dose response (AID 504722); format: functional
Chain of DNA dC->dU-editing enzyme APOBEC-3A (P31941 whole entry): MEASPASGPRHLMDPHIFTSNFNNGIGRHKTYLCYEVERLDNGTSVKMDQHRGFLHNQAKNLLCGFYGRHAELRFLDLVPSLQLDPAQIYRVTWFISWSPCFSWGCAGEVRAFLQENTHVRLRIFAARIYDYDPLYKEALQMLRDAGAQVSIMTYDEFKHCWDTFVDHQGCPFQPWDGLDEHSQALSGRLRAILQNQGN

[7] = biological target: T1, Small ubiquitin-related modifier 1; experiment: SUMO1 protein interaction blockers, potency – biochemical, fluorescence polarization, uHTS hits, dose response (AID 624382); format: functional; settings: read-out: IC50_Mean
[8] = biological target: Induced myeloid leukemia cell differentiation protein Mcl-1 (Homo sapiens, UniProt Q07820); format: functional
Chain of Induced myeloid leukemia cell differentiation protein Mcl-1 (Q07820 whole entry): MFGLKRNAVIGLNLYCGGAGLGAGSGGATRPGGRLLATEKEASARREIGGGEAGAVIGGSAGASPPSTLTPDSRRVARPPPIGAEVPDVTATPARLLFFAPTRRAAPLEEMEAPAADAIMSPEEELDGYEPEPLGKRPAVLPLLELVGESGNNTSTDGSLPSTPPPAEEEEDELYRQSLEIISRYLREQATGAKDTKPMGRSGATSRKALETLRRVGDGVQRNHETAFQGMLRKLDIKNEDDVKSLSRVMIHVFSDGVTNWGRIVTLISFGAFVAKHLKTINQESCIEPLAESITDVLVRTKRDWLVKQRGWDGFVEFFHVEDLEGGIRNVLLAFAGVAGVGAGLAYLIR

[9] = Luminescence Cell-Based Dose Response Follow up to Identify Inhibitors of Platelet Dense Granule Release. [Related pubchem assays (depositor defined):AID1663, AID1678, AID2398]; format: functional
[10] = blockers of SFLLRN-triggered platelet ATP secretion – cell-based, human platelets, luminescence, dry powder, dose response (AID 493100); format: functional
[11] = biological target: T4, Sentrin-specific protease 6 (Homo sapiens, UniProt Q9GZR1); experiment: SAR Analysis of small molecule inhibitors of Sentrin-specific protease 6 (SENP6) using a Luminescent assay. [Related pubchem assays (depositor defined):AID2582, AID2599]; format: functional
T4 sequence (Q9GZR1 whole entry): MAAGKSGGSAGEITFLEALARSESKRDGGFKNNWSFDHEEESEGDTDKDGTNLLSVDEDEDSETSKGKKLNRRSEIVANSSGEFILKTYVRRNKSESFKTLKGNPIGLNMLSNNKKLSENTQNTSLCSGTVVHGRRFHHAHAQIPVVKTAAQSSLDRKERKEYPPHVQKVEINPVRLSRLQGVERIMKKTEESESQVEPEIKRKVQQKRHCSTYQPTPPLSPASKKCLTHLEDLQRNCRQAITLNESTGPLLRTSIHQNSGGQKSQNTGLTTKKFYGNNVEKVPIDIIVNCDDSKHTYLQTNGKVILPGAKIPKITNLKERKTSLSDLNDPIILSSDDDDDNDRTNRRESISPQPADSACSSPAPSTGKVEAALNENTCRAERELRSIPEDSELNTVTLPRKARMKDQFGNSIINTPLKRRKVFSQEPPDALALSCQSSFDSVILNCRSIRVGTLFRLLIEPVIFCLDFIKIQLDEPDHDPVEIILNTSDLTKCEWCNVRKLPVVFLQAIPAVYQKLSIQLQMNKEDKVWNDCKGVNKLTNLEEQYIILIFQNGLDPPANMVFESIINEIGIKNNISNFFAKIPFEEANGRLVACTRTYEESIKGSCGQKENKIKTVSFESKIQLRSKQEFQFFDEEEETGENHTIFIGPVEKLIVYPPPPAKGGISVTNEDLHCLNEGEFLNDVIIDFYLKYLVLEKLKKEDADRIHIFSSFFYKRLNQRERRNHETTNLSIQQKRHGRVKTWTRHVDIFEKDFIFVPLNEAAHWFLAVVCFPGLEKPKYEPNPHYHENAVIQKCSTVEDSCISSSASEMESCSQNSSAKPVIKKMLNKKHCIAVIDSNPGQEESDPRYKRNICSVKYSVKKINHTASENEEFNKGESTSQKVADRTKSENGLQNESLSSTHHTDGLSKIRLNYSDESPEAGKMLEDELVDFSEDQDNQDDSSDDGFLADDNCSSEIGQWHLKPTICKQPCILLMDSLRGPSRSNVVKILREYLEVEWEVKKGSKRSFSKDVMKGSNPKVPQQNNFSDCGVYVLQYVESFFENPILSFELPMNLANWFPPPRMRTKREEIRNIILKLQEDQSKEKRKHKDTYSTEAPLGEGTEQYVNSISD

[12] = biological target: T5, Caspase-3 (Homo sapiens, UniProt P42574); experiment: SAR Analysis of small molecule inhibitors of Sentrin-specific proteases (SENPs) using a Caspase-3 Selectivity assay. [Related pubchem assays (depositor defined):AID2540, AID2599, AID434973, AID489001]; format: functional
T5 sequence (P42574 whole entry): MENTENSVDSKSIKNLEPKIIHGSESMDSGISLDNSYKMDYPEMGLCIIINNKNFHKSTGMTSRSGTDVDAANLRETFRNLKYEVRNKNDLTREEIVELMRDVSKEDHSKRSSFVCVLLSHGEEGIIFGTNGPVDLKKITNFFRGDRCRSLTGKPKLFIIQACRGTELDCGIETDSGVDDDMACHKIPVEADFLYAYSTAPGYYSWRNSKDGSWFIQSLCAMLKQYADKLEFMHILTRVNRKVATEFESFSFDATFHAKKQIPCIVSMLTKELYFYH

[13] = biological target: T6, Sentrin-specific protease 8 (Homo sapiens, UniProt Q96LD8); experiment: inhibition of sentrin protease 8 – biochemical, luminescence, set 2, SAR follow-up (AID 588601); format: functional
T6 sequence (Q96LD8 whole entry): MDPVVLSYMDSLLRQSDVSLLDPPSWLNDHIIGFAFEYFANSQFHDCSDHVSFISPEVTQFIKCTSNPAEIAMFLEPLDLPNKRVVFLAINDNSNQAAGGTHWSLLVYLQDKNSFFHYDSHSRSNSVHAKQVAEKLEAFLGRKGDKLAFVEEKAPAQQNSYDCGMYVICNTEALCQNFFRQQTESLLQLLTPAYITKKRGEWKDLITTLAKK

[14] = biological target: T7, Sentrin-specific protease 7 (Homo sapiens, UniProt Q9BQF6); experiment: inhibition of human SENP7 cleavage activity – biochemical, luminescence, SAR follow-up (AID 504497); format: functional
T7 sequence (Q9BQF6 whole entry): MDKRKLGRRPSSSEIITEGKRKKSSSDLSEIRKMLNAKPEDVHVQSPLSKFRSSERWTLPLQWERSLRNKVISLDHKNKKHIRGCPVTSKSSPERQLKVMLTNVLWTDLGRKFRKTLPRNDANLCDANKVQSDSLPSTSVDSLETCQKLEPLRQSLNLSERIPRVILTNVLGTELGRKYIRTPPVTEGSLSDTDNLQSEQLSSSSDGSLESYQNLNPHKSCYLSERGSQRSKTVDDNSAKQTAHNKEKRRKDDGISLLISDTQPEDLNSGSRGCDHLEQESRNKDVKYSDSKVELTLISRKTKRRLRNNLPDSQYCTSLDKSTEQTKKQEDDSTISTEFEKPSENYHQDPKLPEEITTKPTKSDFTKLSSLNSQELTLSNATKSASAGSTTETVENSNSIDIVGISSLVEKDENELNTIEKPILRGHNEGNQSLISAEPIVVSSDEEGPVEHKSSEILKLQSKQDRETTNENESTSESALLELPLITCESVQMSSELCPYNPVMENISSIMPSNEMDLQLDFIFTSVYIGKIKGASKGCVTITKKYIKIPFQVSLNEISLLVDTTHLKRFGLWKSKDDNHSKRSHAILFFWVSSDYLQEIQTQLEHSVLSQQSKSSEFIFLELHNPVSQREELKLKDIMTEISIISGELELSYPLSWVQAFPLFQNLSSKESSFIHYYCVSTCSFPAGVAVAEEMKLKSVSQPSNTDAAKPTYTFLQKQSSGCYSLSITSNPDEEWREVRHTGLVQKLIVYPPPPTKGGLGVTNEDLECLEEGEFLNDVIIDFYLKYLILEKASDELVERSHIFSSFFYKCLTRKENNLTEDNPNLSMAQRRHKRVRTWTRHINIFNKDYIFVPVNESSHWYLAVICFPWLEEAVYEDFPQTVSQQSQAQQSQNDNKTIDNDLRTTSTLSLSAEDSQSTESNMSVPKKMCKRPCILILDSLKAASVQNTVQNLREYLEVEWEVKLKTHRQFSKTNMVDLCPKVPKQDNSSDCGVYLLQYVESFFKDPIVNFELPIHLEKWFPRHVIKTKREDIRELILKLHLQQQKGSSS

[15] = biological target: T5, Caspase-3; experiment: inhibition of recombinant caspase-3 activity – biochemical, luminescence, set 2, selectivity assay for SENP protease inhibitor project, SAR follow-up (AID 588599); format: functional
[16] = biological target: T7, Sentrin-specific protease 7; experiment: inhibition of human SENP7 cleavage activity – biochemical, luminescence, set 2, SAR follow-up (AID 588600); format: functional
[17] = biological target: T4, Sentrin-specific protease 6; experiment: inhibition of human SENP6 catalytic domain – biochemical, luminescence, set 2, SAR follow-up (AID 588598); format: functional
[18] = biological target: T6, Sentrin-specific protease 8; experiment: inhibition of human SENP8 cleavage activity – biochemical, luminescence, SAR follow-up (AID 504501); format: functional
[19] = biological target: RNA-editing ligase 1, mitochondrial (Trypanosoma brucei brucei, UniProt P86926); experiment: inhibition of trypanosome RNA editing ligase – biochemical, fluorescence, Trypanosoma brucei, dose response (AID 1117295); format: functional
Chain of RNA-editing ligase 1, mitochondrial (P86926 whole entry): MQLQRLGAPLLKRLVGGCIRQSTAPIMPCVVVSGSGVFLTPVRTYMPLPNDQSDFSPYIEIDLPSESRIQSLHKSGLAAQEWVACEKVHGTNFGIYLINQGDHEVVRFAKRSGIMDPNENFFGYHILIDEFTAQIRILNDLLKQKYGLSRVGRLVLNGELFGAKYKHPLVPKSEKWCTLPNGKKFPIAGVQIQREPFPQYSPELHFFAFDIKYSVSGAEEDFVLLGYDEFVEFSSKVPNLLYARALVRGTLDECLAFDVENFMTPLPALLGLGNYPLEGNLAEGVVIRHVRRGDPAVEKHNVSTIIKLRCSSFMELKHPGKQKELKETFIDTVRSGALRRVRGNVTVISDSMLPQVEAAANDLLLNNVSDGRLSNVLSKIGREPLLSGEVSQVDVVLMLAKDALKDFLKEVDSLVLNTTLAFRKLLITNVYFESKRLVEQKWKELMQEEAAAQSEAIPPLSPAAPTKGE

[20] = tested on: Vero; experiment: Vero E6 cell cytotoxicity, dose response, cytotoxicity control (AID 540298); format: functional; settings: Chlorocebus sabaeus
[21] = biological target: Nonstructural protein 1 (Influenza A virus, UniProt Q194T2); format: functional, Influenza A virus (A/California/07/2009(H1N1))
Chain of Nonstructural protein 1 (Q194T2 whole entry): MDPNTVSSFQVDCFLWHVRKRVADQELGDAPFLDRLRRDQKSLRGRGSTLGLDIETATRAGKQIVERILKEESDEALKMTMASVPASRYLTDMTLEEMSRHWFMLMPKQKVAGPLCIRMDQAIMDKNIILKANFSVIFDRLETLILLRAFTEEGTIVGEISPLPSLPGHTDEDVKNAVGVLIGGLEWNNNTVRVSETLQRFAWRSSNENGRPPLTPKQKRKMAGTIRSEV

[22] = tested on: MDCK; experiment: MDCK cell cytotoxicity, dose response, cytotoxicity control (AID 540296); format: functional; settings: Canis lupus familiaris
[23] = tested on: MDCK; experiment: antiviral activity against H1N1 influenza, dose response, cell-based, strain KY180 (AID 540254); format: functional; settings: Canis lupus familiaris

Chain of DNA dC->dU-editing enzyme APOBEC-3G (Q9HC16 whole entry): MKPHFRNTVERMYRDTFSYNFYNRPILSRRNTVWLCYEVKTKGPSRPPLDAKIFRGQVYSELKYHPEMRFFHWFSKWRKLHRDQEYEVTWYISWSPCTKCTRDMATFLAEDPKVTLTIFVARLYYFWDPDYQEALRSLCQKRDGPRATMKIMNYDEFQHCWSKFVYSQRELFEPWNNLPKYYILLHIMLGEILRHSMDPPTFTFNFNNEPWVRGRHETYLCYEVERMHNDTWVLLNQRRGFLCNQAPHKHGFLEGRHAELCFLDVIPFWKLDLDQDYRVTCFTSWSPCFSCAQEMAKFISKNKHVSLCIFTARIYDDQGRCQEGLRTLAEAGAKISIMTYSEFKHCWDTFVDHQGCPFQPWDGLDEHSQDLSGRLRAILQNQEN

C=C(C)C(=O)Nc1cccc(C2=NOC3(C2)C[C@H](C(N)=O)N(C(=O)/C=C/C)C3)c1 (stereo partly drawn)
inactive: EC50 [5] 21.3 µM | IC50 [6] > 100 µM | IC50 [7] > 66.6 µM
active: IC50 [1] 6.14 µM | IC50 [2] 1.93 µM | IC50 [3] 1.61 µM | EC50 [4] 2.71 µM | IC50 [8] 3.48 µM

CCCCC(=O)N/N=C(\C)c1ccc(NC(=O)C(F)(F)F)cc1
active: EC50 [9] 5.49 µM | AC50 [10] 41.3 µM

COc1cc(/C=C/c2noc(-c3ccccc3O)n2)ccc1OCC(=O)O
active: IC50 [12] 54 µM | IC50 [13] 46.3 µM | IC50 [14] 18 µM | IC50 [15] 28.2 µM | IC50 [16] 72.3 µM | IC50 [17] 21.9 µM
inactive: IC50 [11] > 99 µM | IC50 [18] > 99 µM

CCN(c1ccccc1)S(=O)(=O)c1ccc(C(=O)N(CCCN(C)C)c2nc3c(C)cccc3s2)cc1
active: CC50 [20] 16 µM | IC50 [21] > 100 µM | CC50 [22] 10.8 µM | IC50 [23] > 100 µM
inactive: IC50 [19] > 96.6 µM
